Results reported in US20010038824A1, “Intranasal cyclic peptide formulations” (priority 2000, published 2001).
Numbered stars: 1 amine (or outer) side, 2 acyl side, 3 side chain; on linkers, the order of the positions; unused ones are H or OH. Bridge positions count the residues as written; N and C are the ends. Square brackets hold non-standard residues; d marks the D form. Peptide text beside a SMILES is read from it. * marks the point of attachment. ξ: configuration not given here. X9 = O=C(C[C@@H](CCc1ccc(-c2ccc(OCCCc3ccccc3)cc2)cc1)N[*:2])[*:1]; X11 = CCCCCOc1ccc(-c2ccc(CC[C@H](CC(=O)[*:1])N[*:2])cc2)cc1; NαBis(2-aminoethyl)dOrn = NCCC[C@H](C(=O)*)N(CCN)CCN; X6 = NCCC[C@H](N)C(=O)N(CCCN)CCCC(N[*:1])C(=O)[*:2]; X7 = CCCCCCCCCCCCC(C)[C@H](CC(=O)[*:1])O[*:2]; X4 = CCCCCCCCCCCCC[C@H](CC(=O)[*:1])O[*:2]; X3 = NCCCN(CCCC(N[*:1])C(=O)[*:2])[*:3]; X2 = NC(=O)CC(O)C(N[*:1])C(=O)[*:2]; ξDopa = NC(Cc1ccc(O)c(O)c1)C(=O)O; X1 = O=C(C1C(O)CCN1[*:1])[*:2]; ξY = NC(Cc1ccc(O)cc1)C(=O)O; ξHyp = O=C(O)C1CC(O)CN1; ξOrn = NCCCC(N)C(=O)O; ξT = CC(O)C(N)C(=O)O; ξV = CC(C)C(N)C(=O)O; ξA = CC(N)C(=O)O

Legend:
Candida albicans CY1002 = test: In vitro antifungal activity, broth micro-dilution; type: cell-based; details: YNB medium, 1-2 days at 35° C.
Protocol: (§1) The in vitro antifungal activities of the representative Aerothricins of the present study were evaluated by determining the 50% inhibitory concentration (IC50), which was calculated as the lowest concentration of an antifungal to inhibit the growth of fungus to […] turbidity compared with the drug-free control growth spectrophotometrically.
(§2) The IC50 values were determined by the broth micro-dilution procedure based on NCCLS Approved Standard with the following minor modifications (National Committee for Clinical Laboratory Standards. (1997) Reference method for broth dilution antifungal susceptibility testing for yeasts. Approved standard. Document M27-A). Yeast Nitrogen Base (YNB; Difco Lab.) supplemented with 1% glucose and 0.25% K2HPO4 was used as testing medium for yeast, the same medium solidified with 0.2% low melting point agarose (BRL) was used for filamentous fungi. Inoculum size was 1-3×10^4 cells/ml, and incubation was performed for 1-2 days at 35° C.

[1] = test system: Aspegillus fumigatus CF1003; test: In vitro antifungal activity, broth micro-dilution; type: cell-based; details: YNB medium with 0.2% agarose, 1-2 days at 35° C.
Protocol: as §1, §2

Fusarium solani CF1088 = test: In vitro antifungal activity, broth micro-dilution; type: cell-based; details: YNB medium with 0.2% agarose, 1-2 days at 35° C.
Protocol: as §1, §2

Candida albicans = test: Murine systemic candidiasis; type: in vivo, mice; details: i.v., b.i.d×1 day followed by q.d.×2 days; survival on day 14
Protocol: Mice of a conventional immunocompetent mouse strain, Crj: CD-1 (ICR) were used for experimental infection models of systemic candidiasis. 4 weeks old Crj: CD-1 (ICR) mice were used for systemic candidiasis by injecting Candida albicans 5×10^6 conidia/mouse via the tail vein. Treatments were given twice (0, 4 h after infection) on the first day and once daily on following 2 days for systemic candidiasis (b.i.d×1 day followed by q.d.×2 days), intravenously (i.v.). 50% of effective dose (ED50) values was calculated from the survival number at each dose on day 14.

[2] = Toxicity on administration to mice for 4 weeks; type: in vivo; details: 5 mg/kg and 30 mg/kg to mice for 4 weeks
mouse hepatocytes = test: In vitro hepatotoxicity test; type: cell-based; details: mouse hepatocyte monolayers, 1 day exposure, morphological evaluation
Source text: The mouse hepatocytes were isolated by a collagenase digestion and cultured in microtest plates. The hepatocyte monolayers were exposed to the test Aerothricins in the culture system for 1 day. After the culture period, the hepatocytes were observed under a microscope and evaluated morphologically. The degree of the morphological alteration (degeneration) of the hepatocytes by the test Aerothricins were compared with WF11243 and LY303366.

CCCCCOc1ccc(-c2ccc(CC[C@@H]3CC(=O)NC(C(C)O)C(=O)NC(C)C(=O)NC(Cc4ccc(O)cc4)C(=O)NC(C(C)C)C(=O)N4CC(O)CC4C(=O)NC(C(C)O)C(=O)NC(C(C)O)C(=O)N4CCC(O)C4C(=O)NC(C(O)CC(N)=O)C(=O)NCC(=O)NC(C(C)O)C(=O)NC(CCCN)C(=O)N3)cc2)cc1 (stereo partly drawn) [Aerothricin 41] ([ξT][ξA][ξY][ξV][ξHyp][ξT][ξT][X1][X2]G[ξT][ξOrn]; linker N-C via X11)
In vitro Antifungal activity, IC50, Candida albicans CY1002 (Candida albicans CY1002): 0.08 µg/mL | In vitro Antifungal activity, IC50, Aspegillus fumigatus CF1003 [1]: 0.03 µg/mL | In vitro Antifungal activity, IC50, Fusarium solani CF1088 (Fusarium solani CF1088): 2.40 µg/mL | In vivo antifungal activity against systemic candidiasis in mice, ED50 on day 14 (Candida albicans): 0.3 mg/kg

CCCCCCCCCCOc1ccc(CC[C@@H]2CC(=O)NC(C(C)O)C(=O)NC(C)C(=O)NC(Cc3ccc(O)cc3)C(=O)NC(C(C)C)C(=O)N3CC(O)CC3C(=O)NC(C(C)O)C(=O)NC(C(C)O)C(=O)N3CCC(O)C3C(=O)NC(C(O)CC(N)=O)C(=O)NCC(=O)NC(C(C)O)C(=O)NC(CCCN)C(=O)N2)cc1 (stereo partly drawn) [Aerothricin 36]
In vitro Antifungal activity, IC50, Candida albicans CY1002 (Candida albicans CY1002): 0.08 µg/mL | In vitro Antifungal activity, IC50, Aspegillus fumigatus CF1003 [1]: 0.05 µg/mL | In vitro Antifungal activity, IC50, Fusarium solani CF1088 (Fusarium solani CF1088): 1.00 µg/mL | In vivo antifungal activity against systemic candidiasis in mice, ED50 on day 14 (Candida albicans): 0.6 mg/kg

CCCCCCCCCCCCC[C@@H]1CC(=O)NC(C(C)O)C(=O)NC(C)C(=O)NC(Cc2ccc(OC)cc2)C(=O)NC(C(C)C)C(=O)N2CC(O)CC2C(=O)NC(C(C)O)C(=O)NC(C(C)O)C(=O)N2CCC(O)C2C(=O)NC(C(O)CC(N)=O)C(=O)NCC(=O)NC(C(C)O)C(=O)NC(CCCN)C(=O)O1 (stereo partly drawn) [Aerothricin 5] ([ξT][ξA][ξY](Me)[ξV][ξHyp][ξT][ξT][X1][X2]G[ξT][ξOrn]; linker N-C via X4)
In vitro Antifungal activity, IC50, Candida albicans CY1002 (Candida albicans CY1002): 0.03 µg/mL | In vitro Antifungal activity, IC50, Aspegillus fumigatus CF1003 [1]: 0.07 µg/mL | In vitro Antifungal activity, IC50, Fusarium solani CF1088 (Fusarium solani CF1088): 0.19 µg/mL | In vivo antifungal activity against systemic candidiasis in mice, ED50 on day 14 (Candida albicans): 0.3 mg/kg

CCCCCCCCCCCCC[C@@H]1CC(=O)NC(C(C)O)C(=O)NC(C)C(=O)NC(Cc2ccc(O)c(O)c2)C(=O)NC(C(C)C)C(=O)N2CC(O)CC2C(=O)NC(C(C)O)C(=O)NC(C(C)O)C(=O)N2CCC(O)C2C(=O)NC(C(O)CC(N)=O)C(=O)NCC(=O)NC(C(C)O)C(=O)NC(CCCN)C(=O)O1 (stereo partly drawn) [Aerothricin 2] ([ξT][ξA][ξDopa][ξV][ξHyp][ξT][ξT][X1][X2]G[ξT][ξOrn]; linker N-C via X4)
Solubility (Solubility): Soluble: water, methanol, dimethylsulfoxide

CCCCCCCCCCCCC(C)[C@@H]1CC(=O)NC(C(C)O)C(=O)NC(C)C(=O)NC(Cc2ccc(O)cc2)C(=O)NC(C(C)C)C(=O)N2CC(O)CC2C(=O)NC(C(C)O)C(=O)NC(C(C)O)C(=O)N2CCC(O)C2C(=O)NC(C(O)CC(N)=O)C(=O)NCC(=O)NC(C(C)O)C(=O)NC(CCCN)C(=O)O1 (stereo partly drawn) [Aerothricin 1] ([ξT][ξA][ξY][ξV][ξHyp][ξT][ξT][X1][X2]G[ξT][ξOrn]; linker N-C via X7)
In vitro Antifungal activity, IC50, Candida albicans CY1002 (Candida albicans CY1002): 0.03 µg/mL | In vitro Antifungal activity, IC50, Aspegillus fumigatus CF1003 [1]: 0.06 µg/mL | In vitro Antifungal activity, IC50, Fusarium solani CF1088 (Fusarium solani CF1088): 0.21 µg/mL | acute toxicity [2]: no acute toxicity | Solubility (Solubility): Soluble: water, methanol, dimethylsulfoxide

CC1NC(=O)C(C(C)O)NC(=O)C[C@@H](CCc2ccc(-c3ccc(OCCCc4ccccc4)cc3)cc2)NC(=O)C(CCCN)NC(=O)C(C(C)O)NC(=O)CNC(=O)C(C(O)CC(N)=O)NC(=O)C2C(O)CCN2C(=O)C(C(C)O)NC(=O)C(C(C)O)NC(=O)C2CC(O)CN2C(=O)C(C(C)C)NC(=O)C(Cc2ccc(O)cc2)NC1=O (stereo partly drawn) [Aerothricin 46] ([ξT][ξA][ξY][ξV][ξHyp][ξT][ξT][X1][X2]G[ξT][ξOrn]; linker N-C via X9)
In vitro Antifungal activity, IC50, Candida albicans CY1002 (Candida albicans CY1002): 0.09 µg/mL | In vitro Antifungal activity, IC50, Aspegillus fumigatus CF1003 [1]: 0.08 µg/mL | In vitro Antifungal activity, IC50, Fusarium solani CF1088 (Fusarium solani CF1088): 1.80 µg/mL | In vivo antifungal activity against systemic candidiasis in mice, ED50 on day 14 (Candida albicans): 0.4 mg/kg

CCCCCCCCCCCCC[C@@H]1CC(=O)NC(C(C)O)C(=O)NC(C)C(=O)NC(Cc2ccc(O)cc2)C(=O)NC(C(C)C)C(=O)N2CC(O)CC2C(=O)NC(C(C)O)C(=O)NC(C(C)O)C(=O)N2CCC(O)C2C(=O)NC(C(O)CC(N)=O)C(=O)NCC(=O)NC(C(C)O)C(=O)NC(CCCN(CCCN)C(=O)[C@@H](N)CCCN)C(=O)O1 (stereo partly drawn) [Aerothricin 132] ([ξT][ξA][ξY][ξV][ξHyp][ξT][ξT][X1][X2]G[ξT][X6]; linker N-C via X4)
Cytotoxicity to hepatocyte (mouse hepatocytes): >100 µg/mL | In vitro Antifungal activity, IC50, Candida albicans CY1002 (Candida albicans CY1002): 0.30 µg/mL | In vitro Antifungal activity, IC50, Aspegillus fumigatus CF1003 [1]: 0.10 µg/mL | In vitro Antifungal activity, IC50, Fusarium solani CF1088 (Fusarium solani CF1088): 0.19 µg/mL

CCCCCCCCCCCCC[C@@H]1CC(=O)NC(C(C)O)C(=O)NC(C)C(=O)NC(Cc2ccc(O)cc2)C(=O)NC(C(C)C)C(=O)N2CC(O)CC2C(=O)NC(C(C)O)C(=O)NC(C(C)O)C(=O)N2CCC(O)C2C(=O)NC(C(O)CC(N)=O)C(=O)NCC(=O)NC(C(C)O)C(=O)NC(CCCN(CCCN)C(=O)[C@@H](CCCN)N(CCN)CCN)C(=O)O1 (stereo partly drawn) [Aerothricin 135] ([ξT][ξA][ξY][ξV][ξHyp][ξT][ξT][X1][X2]G[ξT][X3](NαBis(2-aminoethyl)dOrn); linker N-C via X4)
Cytotoxicity to hepatocyte (mouse hepatocytes): >100 µg/mL
